In brackets after ≈: the same amount, converted by molar mass. Counter-ions that a name gives are not always drawn. Like-named read-outs stand apart in the source and are kept apart here.
Assays:
MRSA = test: MIC by broth microdilution, MRSA isolates; type: cell-based; conditions: for MIC50: Staphylococcus aureus, MRSA, Table 1 (Example 1)
[1] = system: Klebsiella pneumonia AG215; test: MIC by broth microdilution, Klebsiella pneumonia; type: cell-based; conditions: strain AG215 Klebsiella pneumonia; for MIC: Klebsiella pneumoniae, read-out: MIC AG215 K. pneumon
E coli wild type = test: MIC by broth microdilution, wild type E coli; type: cell-based; conditions: for MIC / MIC50: Escherichia coli; for MIC50: Table 1 (Example 1)
M. smegmatis SZ380 = test: MIC by broth microdilution, M. smegmatis; conditions: for MIC: Mycolicibacterium smegmatis, SZ380, read-out: MIC SZ380 M. smegmatis, strain SZ380 Mycobacterium smegmatis
[2] = system: Enterobacter cloacae AG290; test: MIC by broth microdilution, Enterobacter cloacae; type: cell-based; conditions: strain AG290 Enterobacter cloacae; for MIC: read-out: MIC AG290 E. cloacae
[3] = system: Acinetobacter baumannii pittii AG225; test: MIC by broth microdilution, Acinetobacter baumannii; type: cell-based; conditions: strain AG225 Acinetobacter baumannii pittii
[4] = system: E coli carrying specific resistance determinants; test: MIC by broth microdilution, E coli carrying specific resistance determinants; type: cell-based; conditions: for MIC: Escherichia coli
P aeruginosa = test: MIC by broth microdilution, P aeruginosa isolates; type: cell-based, Pseudomonas aeruginosa; conditions: for MIC50: Pseudomonas aeruginosa, Table 1 (Example 1); for MIC: read-out: MIC AG220 P. aerugin
[5] = strain AG220 Pseudomonas aeruginosa ATCC27853

`CC(=O)NC[C@H]1O[C@@H](O[C@@H]2C(O)[C@H](N)CC(N)[C@H]2O[C@H]2OC(CO)[C@@H](O)[C@H](O)C2N)C(O)[C@H]1O[C@H]1O[C@@H](CN)[C@@H](O)C(O)C1N` (some centres unmarked) [Compound 165, 5″-Acetamido-5″-deoxy-paromomycin-acetate salt] showed an MIC50 (MRSA; strain AG38, read-out: MIC50 MRSA AG38) of 16 to 32 mg/L, an MIC50 (MRSA; strain AG39, read-out: MIC50 MRSA AG39) greater than 128 mg/L and an MIC50 (MRSA; strain AG42, read-out: MIC50 MRSA AG42) greater than 128 mg/L. For the same molecule, the MIC50 (MRSA; strain AG44, read-out: MIC50 MRSA AG44) was 16 mg/L, the MIC [1] was 8 mg/L and the MIC (E coli wild type; AG006 wt, Table 2 (Example 1), read-out: MIC E coli AG006 wt) was 4 to 8 mg/L. For the same molecule, the MIC (E coli wild type; ATCC25922, strain AG212 E. coli (ATCC25922), read-out: MIC AG212 E. coli) was 16 mg/L, the MIC (E coli wild type; clinical isolate AG160 WT, Table 2 (Example 4), read-out: MIC AG160 E. coli WT) was 8 mg/L and the MIC (E coli wild type; engineered strain pH430 WT, Table 2 (Example 4), read-out: MIC pH430 E. coli WT) was 8 to 16 mg/L. It also gave an MIC50 (E coli wild type; strain AG01, read-out: MIC50 E coli AG01) of 64 mg/L, an MIC50 (E coli wild type; strain AG03, read-out: MIC50 E coli AG03) of 32 to 64 mg/L and an MIC50 (E coli wild type; strain AG55, read-out: MIC50 E coli AG55) of 32 mg/L. For the same molecule, the MIC (M. smegmatis SZ380) was 32 mg/L, the MIC [2] was 8 mg/L and the MIC [3] was 8 to 16 mg/L. It also gave an MIC ([4]; read-out: MIC AG037 E. coli APH(3′)-III) greater than 64 mg/L, an MIC ([4]; read-out: MIC pH421 E. coli APH(3′)-I) greater than 64 mg/L and an MIC ([4]; read-out: MIC pH422 E. coli APH(3′)-II) greater than 64 mg/L. The MIC ([4]; read-out: MIC pH423 E. coli APH(3′)-VI) was greater than 64 mg/L, the MIC50 (P aeruginosa; strain AG31, read-out: MIC50 P aeruginosa AG31) was greater than 128 mg/L and the MIC50 (P aeruginosa; strain AG32, read-out: MIC50 P aeruginosa AG32) was greater than 128 mg/L. It also gave an MIC50 (P aeruginosa; strain AG33, read-out: MIC50 P aeruginosa AG33) greater than 128 mg/L, an MIC50 (P aeruginosa; strain AG86, read-out: MIC50 P aeruginosa AG86) greater than 128 mg/L and an MIC (P aeruginosa; [5]) greater than 64 mg/L.

In the case of `CCCC(O)C1OC(OC2C(N)CC(N)C(O)C2OC2OC(CO)C(OC3OC(CN)C(O)C(O)C3N)C2O)C(N)C(O)C1O` (centres unmarked) [Compound 143], the “MIC50 MRSA AG38” value (MRSA; strain AG38, Table 1 (Example 2)) is reported as 32 to 64 mg/L, the “MIC50 MRSA AG39” value (MRSA; strain AG39, Table 1 (Example 2)) is reported as greater than 64 mg/L and the “MIC50 MRSA AG42” value (MRSA; strain AG42, Table 1 (Example 2)) is reported as greater than 64 mg/L. For the same molecule, the “MIC50 MRSA AG44” value (MRSA; strain AG44, Table 1 (Example 2)) was 16 mg/L (≈ 24.3 µM), the “MIC AG215 K. pneumon” value [1] was 4 mg/L (≈ 6.08 µM) and the “MIC50 E coli BM13 (AG06) wt” value (E coli wild type; BM13 (AG06) wt, Table 2A (Example 2)) was 4 mg/L (≈ 6.08 µM). The “MIC50 E coli pH430 WT” value (E coli wild type; pH430 WT, Table 2B (Example 2)) was 4 μg/ml, the “MIC50 E coli AG01” value (E coli wild type; strain AG01, Table 1 (Example 2)) was 32 mg/L (≈ 48.7 µM) and the “MIC50 E coli AG03” value (E coli wild type; strain AG03, Table 1 (Example 2)) was 32 mg/L (≈ 48.7 µM). For the same molecule, the “MIC50 E coli AG55” value (E coli wild type; strain AG55, Table 1 (Example 2)) was 32 mg/L (≈ 48.7 µM), the “MIC AG212 E. coli” value (E coli wild type; strain AG212 E. coli (ATCC25922)) was 8 mg/L (≈ 12.2 µM) and the “MIC SZ380 M. smegmatis” value (M. smegmatis SZ380; strain SZ380 Mycobacterium smegmatis) was 16 mg/L (≈ 24.3 µM). The “MIC AG290 E. cloacae” value [2] was 4 to 8 mg/L, the “MIC AG225 A. baumannii” value [3] was 4 to 8 mg/L and the “MIC50 E coli AG036 ANT(4′,4″)” value ([4]; AG036 ANT(4′,4″), Table 2B (Example 2)) was 64 mg/L (≈ 97.3 µM). The “MIC50 E coli AG037 APH(3′)-III” value ([4]; AG037 APH(3′)-III, Table 2B (Example 2)) was greater than 128 mg/L, the “MIC50 E coli AG103 armA” value ([4]; AG103 armA, Table 2B (Example 2)) was 16 to 32 mg/L and the “MIC50 E coli pH421 APH(3′)-I” value ([4]; pH421 APH(3′)-I, Table 2B (Example 2)) was greater than 128 μg/ml. The “MIC50 E coli pH422 APH(3′)-II” value ([4]; pH422 APH(3′)-II, Table 2B (Example 2)) was greater than 128 μg/ml, the “MIC50 E coli pH423 APH(3)-VI” value ([4]; pH423 APH(3)-VI, Table 2B (Example 2)) was 32-64 μg/ml and the “MIC50 E coli pH432 ANT(4′)” value ([4]; pH432 ANT(4′), Table 2B (Example 2)) was 4 μg/ml. The “MIC50 P aeruginosa AG31” value (P aeruginosa; strain AG31, Table 1 (Example 2)) was greater than 64 mg/L, the “MIC50 P aeruginosa AG32” value (P aeruginosa; strain AG32, Table 1 (Example 2)) was greater than 64 mg/L and the “MIC50 P aeruginosa AG33” value (P aeruginosa; strain AG33, Table 1 (Example 2)) was greater than 64 mg/L. The “MIC50 P aeruginosa AG86” value (P aeruginosa; strain AG86, Table 1 (Example 2)) was greater than 64 mg/L and the “MIC AG220 P. aerugin” value (P aeruginosa; [5]) was greater than 128 mg/L.

With `NCC1O[C@H](O[C@@H]2C(N)C[C@@H](N)C(O)[C@H]2O[C@@H]2O[C@H](CO)[C@H](F)C2O)[C@@H](N)C(O)[C@@H]1O` (some centres unmarked) [Compound 093] the MIC [1] was 1 to 2 mg/L (≈ 2.19 to 4.38 µM), the MIC (E coli wild type; ATCC25922, read-out: MIC AG212 E. coli, strain AG212 E. coli (ATCC25922)) was 2 mg/L (≈ 4.38 µM) and the MIC (M. smegmatis SZ380) was 8 mg/L (≈ 17.5 µM). The MIC [2] was 2 mg/L (≈ 4.38 µM), the MIC [3] was 16 mg/L (≈ 35.1 µM) and the MIC (P aeruginosa; [5]) was greater than 64 mg/L.
